Test results: publication PMC2829272 (Biochemical pharmacology, 2008)

Biological target: T1, CYP26A1 (Homo sapiens, UniProt O43174)
T1 sequence (O43174 1-497): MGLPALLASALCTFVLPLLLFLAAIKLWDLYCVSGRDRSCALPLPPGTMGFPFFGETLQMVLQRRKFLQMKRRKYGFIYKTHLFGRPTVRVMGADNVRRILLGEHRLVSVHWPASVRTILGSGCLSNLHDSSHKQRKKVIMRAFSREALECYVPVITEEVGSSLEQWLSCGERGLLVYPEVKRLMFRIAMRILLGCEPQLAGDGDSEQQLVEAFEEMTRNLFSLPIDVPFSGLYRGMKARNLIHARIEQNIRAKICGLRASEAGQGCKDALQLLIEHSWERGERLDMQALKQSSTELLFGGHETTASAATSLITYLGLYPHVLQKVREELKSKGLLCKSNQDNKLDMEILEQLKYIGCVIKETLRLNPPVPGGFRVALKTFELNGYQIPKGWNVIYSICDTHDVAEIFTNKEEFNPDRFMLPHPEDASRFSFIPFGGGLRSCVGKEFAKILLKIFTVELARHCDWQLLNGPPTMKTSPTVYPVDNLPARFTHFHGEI
Experiment: spectral titration
Assay type: binding

Work on `CC1=C(/C=C/C(C)=C/C=C/C(C)=C/C(=O)O)C(C)(C)CCC1` [RA, all-trans-retinoic acid] yielded a Kd of 0.529 µM.
